{"source": "paper PMC7093416", "about": "“Selective USP7 inhibition elicits cancer cell killing through a p53-dependent mechanism” (Scientific Reports, 2020)", "tested_on": "panel of 484 cancer cell lines", "experiment": "PRISM cancer cell line profiling, 5 days", "type": "cell-based", "parameters": "Viability: scale not given here; AUC: unit not given beside the values", "method": "Cancer cell line profiling was performed using the Broad’s PRISM platform. Cell treatment and data analysis were performed as described in Yu et al[42]. Raw Luminex signal was converted to AUC values for each cell line as described. The resulting AUC profile for each compound was modeled against DepMap using the limma package in R[71]. Because hotspot mutation analysis was performed against DepMap, TP53 annotations in Fig. 6c,d are directly from DepMap.", "key": {"[1]": {"details": "ISHIKAWAHERAKLIO02ER_ENDOMETRIUM, pert_dose 6.10E-04"}, "[2]": {"details": "ISTMES1_PLEURA, pert_dose 6.10E-04"}, "[3]": {"details": "J82_URINARY_TRACT, pert_dose 6.10E-04"}, "[4]": {"details": "JHOC5_OVARY, pert_dose 6.10E-04"}, "[5]": {"details": "JHOM1_OVARY, pert_dose 6.10E-04"}, "[6]": {"details": "JHOS2_OVARY, pert_dose 6.10E-04"}, "[7]": {"details": "JHUEM2_ENDOMETRIUM, pert_dose 6.10E-04"}, "[8]": {"details": "JMSU1_URINARY_TRACT, pert_dose 6.10E-04"}, "[9]": {"details": "K029AX_SKIN, pert_dose 6.10E-04"}, "[10]": {"details": "KMBC2_URINARY_TRACT, pert_dose 6.10E-04"}, "[11]": {"details": "KMRC1_KIDNEY, pert_dose 6.10E-04"}, "[12]": {"details": "KMRC3_KIDNEY, pert_dose 6.10E-04"}, "[13]": {"details": "KMRC20_KIDNEY, pert_dose 6.10E-04"}, "[14]": {"details": "KNS42_CENTRAL_NERVOUS_SYSTEM, pert_dose 6.10E-04"}, "[15]": {"details": "KNS60_CENTRAL_NERVOUS_SYSTEM, pert_dose 6.10E-04"}, "[16]": {"details": "KNS81_CENTRAL_NERVOUS_SYSTEM, pert_dose 6.10E-04"}, "[17]": {"details": "KP3_PANCREAS, pert_dose 6.10E-04"}, "[18]": {"details": "KPL1_BREAST, pert_dose 6.10E-04"}}, "note": "“And” between values parts separate entries of the source, which are not always exact repeats. Identical values can stand only once."}
{"smiles": "COc1ccc(C2=N[C@@H](c3ccc(Cl)cc3)[C@@H](c3ccc(Cl)cc3)N2C(=O)N2CCNC(=O)C2)c(OC(C)C)c1", "note": "[Nutlin-3A]", "values": [{"measurement": "MFI ISHIKAWAHERAKLIO02ER_ENDOMETRIUM", "setting": "[1]", "result": "17513 and 21089 and 23031 and 24710 and 21077"}, {"measurement": "Viability", "setting": "[1]", "result": 1.048}, {"measurement": "AUC", "setting": "ISTMES1_PLEURA", "result": 0.8886}, {"measurement": "MFI ISTMES1_PLEURA", "setting": "[2]", "result": "2566 and 2035 and 2347.5 and 2015 and 3109"}, {"measurement": "Viability", "setting": "[2]", "result": 1.235}, {"measurement": "AUC", "setting": "ISTMES2_PLEURA", "result": 1.138}, {"measurement": "AUC", "setting": "J82_URINARY_TRACT", "result": 1.1759}, {"measurement": "MFI J82_URINARY_TRACT", "setting": "[3]", "result": "7594 and 8347 and 7959 and 7415.5 and 7720"}, {"measurement": "Viability", "setting": "[3]", "result": 1.013}, {"measurement": "AUC", "setting": "JHH1_LIVER", "result": 0.9453}, {"measurement": "MFI JHH1_LIVER", "setting": "JHH1_LIVER, pert_dose 6.10E-04", "result": "11573 and 10266 and 10186 and 11807 and 10726"}, {"measurement": "Viability", "setting": "JHH1_LIVER, pert_dose 6.10E-04", "result": 1.394}, {"measurement": "AUC", "setting": "JHH4_LIVER", "result": 1.013}, {"measurement": "MFI JHH4_LIVER", "setting": "JHH4_LIVER, pert_dose 6.10E-04", "result": "1508 and 1417.5 and 1162 and 1639 and 865"}, {"measurement": "Viability", "setting": "JHH4_LIVER, pert_dose 6.10E-04", "result": 1.304}, {"measurement": "AUC", "setting": "JHH5_LIVER", "result": 1.1112}, {"measurement": "MFI JHH5_LIVER", "setting": "JHH5_LIVER, pert_dose 6.10E-04", "result": "3002.5 and 2853 and 3080 and 1890 and 2323"}, {"measurement": "Viability", "setting": "JHH5_LIVER, pert_dose 6.10E-04", "result": 1.08}, {"measurement": "AUC", "setting": "JHH6_LIVER", "result": 1.195}, {"measurement": "AUC", "setting": "JHH7_LIVER", "result": 1.097}, {"measurement": "MFI JHH7_LIVER", "setting": "JHH7_LIVER, pert_dose 6.10E-04", "result": "18251 and 14971.5 and 12968 and 19915 and 22149.5"}, {"measurement": "Viability", "setting": "JHH7_LIVER, pert_dose 6.10E-04", "result": 1.3367}, {"measurement": "AUC", "setting": "JHOC5_OVARY", "result": 0.8963}, {"measurement": "MFI JHOC5_OVARY", "setting": "[4]", "result": "1729 and 2155 and 2543 and 1875 and 1529"}, {"measurement": "Viability", "setting": "[4]", "result": 1.248}, {"measurement": "AUC", "setting": "JHOM1_OVARY", "result": 1.061}, {"measurement": "MFI JHOM1_OVARY", "setting": "[5]", "result": "10909 and 10588 and 11258 and 11487.5 and 8758"}, {"measurement": "Viability", "setting": "[5]", "result": 1.182}, {"measurement": "AUC", "setting": "JHOS2_OVARY", "result": 1.199}, {"measurement": "MFI JHOS2_OVARY", "setting": "[6]", "result": "8954 and 9206 and 9624 and 7221 and 11208"}, {"measurement": "Viability", "setting": "[6]", "result": 1.028}, {"measurement": "AUC", "setting": "JHUEM2_ENDOMETRIUM", "result": 0.8108}, {"measurement": "MFI JHUEM2_ENDOMETRIUM", "setting": "[7]", "result": "2855 and 2201 and 2113.5 and 2693 and 2731"}, {"measurement": "Viability", "setting": "[7]", "result": 1.224}, {"measurement": "AUC", "setting": "JIMT1_BREAST", "result": 1.15}, {"measurement": "MFI JIMT1_BREAST", "setting": "JIMT1_BREAST, pert_dose 6.10E-04", "result": "10595.5 and 12336 and 13040 and 10400 and 10776.5"}, {"measurement": "AUC", "setting": "JMSU1_URINARY_TRACT", "result": 1.157}, {"measurement": "MFI JMSU1_URINARY_TRACT", "setting": "[8]", "result": "4527 and 4135 and 3123.5 and 5456 and 3525"}, {"measurement": "Viability", "setting": "[8]", "result": 1.215}, {"measurement": "AUC", "setting": "K029AX_SKIN", "result": 1.078}, {"measurement": "MFI K029AX_SKIN", "setting": "[9]", "result": "12564 and 8034.5 and 10939 and 12309 and 13968"}, {"measurement": "Viability", "setting": "[9]", "result": 1.186}, {"measurement": "AUC", "setting": "KALS1_CENTRAL_NERVOUS_SYSTEM", "result": 1.089}, {"measurement": "AUC", "setting": "KELLY_AUTONOMIC_GANGLIA", "result": 1.128}, {"measurement": "Viability", "setting": "KELLY_AUTONOMIC_GANGLIA, pert_dose 6.10E-04", "result": 1.339}, {"measurement": "AUC", "setting": "KMBC2_URINARY_TRACT", "result": 0.9038}, {"measurement": "MFI KMBC2_URINARY_TRACT", "setting": "[10]", "result": "31608 and 32944 and 28231 and 28847.5 and 34382"}, {"measurement": "Viability", "setting": "[10]", "result": 1.231}, {"measurement": "AUC", "setting": "KMRC1_KIDNEY", "result": 0.8619}, {"measurement": "MFI KMRC1_KIDNEY", "setting": "[11]", "result": "5006 and 3553 and 4568 and 4375 and 4801"}, {"measurement": "Viability", "setting": "[11]", "result": 1.324}, {"measurement": "AUC", "setting": "KMRC3_KIDNEY", "result": 1.059}, {"measurement": "MFI KMRC3_KIDNEY", "setting": "[12]", "result": "29567 and 34290 and 33080.5 and 28662.5 and 32330"}, {"measurement": "Viability", "setting": "[12]", "result": 1.163}, {"measurement": "AUC", "setting": "KMRC20_KIDNEY", "result": 1.075}, {"measurement": "MFI KMRC20_KIDNEY", "setting": "[13]", "result": "6115 and 7240 and 5574 and 9127.5 and 7315"}, {"measurement": "Viability", "setting": "[13]", "result": 0.8672}, {"measurement": "AUC", "setting": "KNS42_CENTRAL_NERVOUS_SYSTEM", "result": 1.094}, {"measurement": "MFI KNS42_CENTRAL_NERVOUS_SYSTEM", "setting": "[14]", "result": "8504.5 and 8227 and 7874 and 8635.5 and 8359"}, {"measurement": "Viability", "setting": "[14]", "result": 1.265}, {"measurement": "AUC", "setting": "KNS60_CENTRAL_NERVOUS_SYSTEM", "result": 1.169}, {"measurement": "MFI KNS60_CENTRAL_NERVOUS_SYSTEM", "setting": "[15]", "result": "11444.5 and 12827 and 11109 and 11402 and 11624"}, {"measurement": "Viability", "setting": "[15]", "result": 1.1124}, {"measurement": "AUC", "setting": "KNS62_LUNG", "result": 1.292}, {"measurement": "MFI KNS62_LUNG", "setting": "KNS62_LUNG, pert_dose 6.10E-04", "result": "2968.5 and 3165 and 4343 and 4527 and 3128"}, {"measurement": "Viability", "setting": "KNS62_LUNG, pert_dose 6.10E-04", "result": 1.098}, {"measurement": "AUC", "setting": "KNS81_CENTRAL_NERVOUS_SYSTEM", "result": 0.9079}, {"measurement": "MFI KNS81_CENTRAL_NERVOUS_SYSTEM", "setting": "[16]", "result": "11445 and 13291.5 and 12010.5 and 13242.5 and 18307.5"}, {"measurement": "Viability", "setting": "[16]", "result": 0.9016}, {"measurement": "AUC", "setting": "KP2_PANCREAS", "result": 1.091}, {"measurement": "AUC", "setting": "KP3_PANCREAS", "result": 1.107}, {"measurement": "MFI KP3_PANCREAS", "setting": "[17]", "result": "17810 and 19047 and 22202 and 17616 and 20627.5"}, {"measurement": "Viability", "setting": "[17]", "result": 1.1325}, {"measurement": "AUC", "setting": "KP4_PANCREAS", "result": 1.1795}, {"measurement": "MFI KP4_PANCREAS", "setting": "KP4_PANCREAS, pert_dose 6.10E-04", "result": "27317.5 and 27770 and 29960.5 and 31578.5 and 28421.5"}, {"measurement": "AUC", "setting": "KPL1_BREAST", "result": 0.8742}, {"measurement": "MFI KPL1_BREAST", "setting": "[18]", "result": "9781 and 14848 and 14727 and 9958 and 12061.5"}, {"measurement": "Viability", "setting": "[18]", "result": 0.9855}, {"measurement": "AUC", "setting": "KU1919_URINARY_TRACT", "result": 0.8508}, {"measurement": "AUC", "setting": "KURAMOCHI_OVARY", "result": 1.126}, {"measurement": "AUC", "setting": "KYSE30_OESOPHAGUS", "result": 0.985}, {"measurement": "AUC", "setting": "KYSE70_OESOPHAGUS", "result": 1.1193}, {"measurement": "AUC", "setting": "KYSE140_OESOPHAGUS", "result": 1.1498}, {"measurement": "AUC", "setting": "KYSE150_OESOPHAGUS", "result": 1.138}, {"measurement": "AUC", "setting": "KYSE180_OESOPHAGUS", "result": 1.143}, {"measurement": "AUC", "setting": "KYSE270_OESOPHAGUS", "result": 0.9726}, {"measurement": "AUC", "setting": "KYSE410_OESOPHAGUS", "result": 1.088}, {"measurement": "AUC", "setting": "KYSE510_OESOPHAGUS", "result": 0.9924}, {"measurement": "AUC", "setting": "KYSE520_OESOPHAGUS", "result": 1.08}, {"measurement": "AUC", "setting": "L33_PANCREAS", "result": 1.295}, {"measurement": "AUC", "setting": "LC1SQSF_LUNG", "result": 1.142}]}
